Source: ChEMBL document CHEMBL1132802, “Synthesis, chiral chromatographic separation, and biological activities of the enantiomers of 10,10-dimethylhuperzine A” (Bioorg Med Chem Lett, 2000)
Values belong to the compound of their own block, whether it stands above or below them.

Key:
Acetylcholinesterase = biological target: T1, Acetylcholinesterase (Bos taurus, UniProt P23795); assay: Binding affinity towards Acetylcholinesterase from fetal bovine serum
T1 sequence (P23795 whole entry): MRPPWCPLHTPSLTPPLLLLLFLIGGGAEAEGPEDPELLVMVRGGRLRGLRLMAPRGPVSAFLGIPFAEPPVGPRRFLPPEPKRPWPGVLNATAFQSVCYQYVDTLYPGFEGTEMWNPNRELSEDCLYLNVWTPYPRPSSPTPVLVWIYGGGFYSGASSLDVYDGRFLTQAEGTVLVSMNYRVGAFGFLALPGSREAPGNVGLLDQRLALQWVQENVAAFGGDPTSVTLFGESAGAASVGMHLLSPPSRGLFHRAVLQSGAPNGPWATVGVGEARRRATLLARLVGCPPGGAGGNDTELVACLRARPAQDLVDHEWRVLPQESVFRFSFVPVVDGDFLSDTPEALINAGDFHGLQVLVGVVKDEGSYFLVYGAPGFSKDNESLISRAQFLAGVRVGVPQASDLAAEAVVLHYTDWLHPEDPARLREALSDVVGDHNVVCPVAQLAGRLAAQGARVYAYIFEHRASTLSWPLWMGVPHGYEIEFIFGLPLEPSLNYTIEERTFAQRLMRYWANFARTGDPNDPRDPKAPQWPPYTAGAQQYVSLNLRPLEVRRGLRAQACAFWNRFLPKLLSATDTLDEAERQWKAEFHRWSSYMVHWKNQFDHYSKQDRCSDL

Rattus norvegicus = species: Rattus norvegicus; assay: Effect of pretreatment on the survival of the rat embryonic forebrain neurons when exposed to glutamate; format: functional
[1] = Half life period was determined; format: ADME; details: rat

SMILES: C/C=C1\C2C=C(C)C[C@]1(N)c1ccc(O)nc1C2(C)C (stereo in doubt; form 1)
Ki (Acetylcholinesterase): 30.9 nM

SMILES: C/C=C1\C2C=C(C)C[C@]1(N)c1ccc(O)nc1C2(C)C.NC(CCC(=O)O)C(=O)O (stereo in doubt; form 2)
Control (Rattus norvegicus): 71.7%

SMILES: C/C=C1\C2C=C(C)C[C@]1(N)c1ccc(O)nc1C2(C)C.NC(CCC(=O)O)C(=O)O (stereo in doubt; form 3)
Control (Rattus norvegicus): 71.3%

SMILES: C/C=C1\C2C=C(C)C[C@]1(N)c1ccc(O)nc1C2(C)C (stereo in doubt; form 4)
Ki (Acetylcholinesterase): 7.7 nM

SMILES: N[C@@H](CCC(=O)O)C(=O)O [GLUTAMIC ACID]
Control (Rattus norvegicus): 43.7%

half-life [1]: 35 min
SMILES: C/C=C1\[C@H]2C=C(C)C[C@]1(N)c1ccc(=O)[nH]c1C2 [HUPERZINE A]
